“Also recorded” adds a separate entry of the source. Read-outs that look alike come from different tables or passages of the source.
What was measured:
MDR1 [1] = settings: cited from earlier work
tumor = settings: nude mice, cited from earlier work
PKC = settings: cited from earlier work; for IC50: Hidaka et al., 1984
P-glycoprotein [2] = biological target: T1, P-glycoprotein (Homo sapiens, UniProt P08183); assay: Dye efflux (Rh123 or DiOC2 (3)) assay of drug-treated K562 cells
Description: (§3) Top panel: Rh123 efflux from untreated cells (-) and from cells treated with 50 μM Ara-C (ARA) for 12 hours or with 10 μAra-C for 2 to 3 days.

MDR1 [3] = assay type: cell-based, human
Description: The times of drug exposure are indicated.
(§1) (Commercially-available kits (for example, from GIBCO/BRL, Gaithersburg, Md.) can be advantageously modified for making cDNA using random hexamers.) PCR is then performed using the following primers: […]
Next, it was tested whether drug-induced MDR1 expression was maintained after the cytotoxic treatment. […] At different time points, MDR1 expression in the surviving cells was analyzed by dye efflux and immunofluorescence labeling with UIC2 (FIG. 3c) or by cDNA-PCR (FIG. 4e).

MRP = assay: Inhibition of MRP expression in H-9 cells; assay type: cell-based, human; design: Inhibition of MRP Expression: key to the marks not given beside the values
Description: PCR was performed using the following primers: […]
(where β2 M represents β2 microglobulin). PCR was performed for β2 M experiments under a regime consisting of 1 cycle comprising denaturation at 94° C. for 3 minutes, primer annealing at 60° C. for 30 seconds, and primer extension at 72° C. for 1 minute, followed by 19 cycles comprising denaturation at 94° C. for 30 seconds, primer annealing at 60° C. for 30 seconds, and primer extension at 72° C. for 1 minute, followed by a final cycle comprising denaturation at 94° C. for 30 seconds, primer annealing at 60° C. for 30 seconds, and primer extension at 72° C. for 5 minutes.

P-glycoprotein [4] = biological target: T1, P-glycoprotein
Description: as §3

[5] = clinical trials; cited from earlier work
MDR1 [6] = assay: Inhibition of PKC agonist (TPA or DOG) induced MDR1 expression; assay type: cell-based, human; settings: for inhibition of TPA-induced MDR1 expression: H-9 cells, TPA 10 ng/ml overnight
Description: as §1
Cells were plated in 6-well Falcon tissue culture plates at 3,300 cells per well, and incubated in the appropriate concentrations of drugs. […] or TPA, with the exception of herbimycin A, which was added 12 hours prior to Ara-C or TPA, and tyrphostins A25 and B46, which were each added 16 hours prior to MDR1 induction by the addition of Ara-C or TPA. Cells were incubated overnight (TPA) or for 10 hours (Ara-C) at 37° C. under an atmosphere of 5% CO2 after the addition of the MDR1 inducing agents before harvesting for cDNA-PCR analysis.
(§2) cDNA-PCR analyses on each culture treated with drugs, or in control cultures incubated in the absence or presence of Ara-C or TPA alone, were performed as described in Section 6.1.3 above.

MDR1 [7] = assay: Inhibition of cytotoxic drug (Ara-C) induced MDR1 expression by protein kinase inhibitors; assay type: cell-based, human
Description: FIG. 5. Effect of protein kinase inhibitors on MDR1 mRNA induction by cytotoxic drugs in H9 cells. […]
as §1
(where β2 M represents β2 microglobulin). PCR was performed for β2 M experiments under a regime consisting of 1 cycle comprising denaturation at 94° C. for 3 minutes, primer annealing at 60° C. for 30 seconds, and primer extension at 72° C. for 1 minute, followed by 19 cycles comprising denaturation at 94° C. for 30 seconds, primer annealing at 60° C. for 30 seconds, and primer extension at 72° C. for 1 minute, followed by a final cycle comprising denaturation at 94° C. for 30 seconds, primer annealing at 60° C. for 30 seconds, and primer extension at 72° C. for 5 minutes. MDR1 cDNA sequences were amplified using the identical protocol as for β2 M, but extending the amplification from 19 cycles to 25 cycles. In addition, the cDNA-PCR amplification protocol contained the following modifications: (i) Taq DNA polymerase was added to the PCR mixtures after initial heating of the samples to 94° C. (ii) The yield of the β2 -microglobulin-specific band, obtained after 22-28 cycles of PCR, was used as the primary criterion for equalizing the starting amounts of the cDNA templates in different preparations, in order to account for differential RNA degradation in cells subjected to different types of treatment. […] PCR products were detected by autoradiography.
Cells were plated in 6-well Falcon tissue culture plates at 3,300 cells per well, and incubated in the appropriate concentrations of drugs. Each of the protein kinase inhibitors to be tested were added at their appropriate final concentrations 45 minutes prior to MDR1 induction by the addition of Ara-C or TPA, with the exception of herbimycin A, which was added 12 hours prior to Ara-C or TPA, and tyrphostins A25 and B46, which were each added 16 hours prior to MDR1 induction by the addition of Ara-C or TPA. Cells were incubated overnight (TPA) or for 10 hours (Ara-C) at 37° C. under an atmosphere of 5% CO2 after the addition of the MDR1 inducing agents before harvesting for cDNA-PCR analysis.
In addition to these conditions, the analysis of certain drugs imposed added requirements. For experiments using calphostin C, cells were incubated under direct white light illumination. For experiments using D,L-threo-sphingosine, the cell culture medium was pre-treated with the appropriate concentration of the drug for one hour at 37° C. with continuous gentle mixing. After this pre-treatment, cells were resuspended in media supplemented with drug and incubated for 45 minutes as described above.
as §2
To further evaluate the capacity of protein kinase inhibitors to suppress MDR1 induction by cytotoxic drugs and PKC agonists, H-9 human T cell leukemia cells were used in cDNA-PCR assays to examine induced MDR1 mRNA expression levels in the presence of such protein kinase inhibitors.

protein kinase A = settings: Hidaka et al., 1984; cited from earlier work
P-glycoprotein [8] = test system: P-glycoprotein
Description: Mouse IgG2a isotype control antibody was obtained from Sigma. For staining of PBL with UIC2 mAB or isotype control, 10^6 cells were stained at 4° C. with 10 μg of the antibody for 30 minutes and, after two washes, stained for 30 minutes with 10 μg of FITC-conjugated goat anti-mouse IgG2a antibody (Fisher Scientific, Fairlawn, N.J.), diluted 1:2 with PBS plus 2% FCS. Cells were then washed twice with ice-cold PBS plus 2% FCS, stained with PI and kept on ice until analysis. Essentially the same protocol was used for staining of other cell types except that 2 μg of the secondary antibody were used per 10^6 cells. In some experiments, phycoerythrine (PE)-conjugated goat anti-mouse IgG2a was used as the secondary antibody; no PI was added in such cases.

[9] = K562 cells treated 3-5 days, then grown in absence of drug
[10] = KB-3-1 epidermoid carcinoma, 2 days
[11] = human leukemia and solid-tumor derived cell lines, subpopulation of treated cells

T1 sequence (P08183 whole entry): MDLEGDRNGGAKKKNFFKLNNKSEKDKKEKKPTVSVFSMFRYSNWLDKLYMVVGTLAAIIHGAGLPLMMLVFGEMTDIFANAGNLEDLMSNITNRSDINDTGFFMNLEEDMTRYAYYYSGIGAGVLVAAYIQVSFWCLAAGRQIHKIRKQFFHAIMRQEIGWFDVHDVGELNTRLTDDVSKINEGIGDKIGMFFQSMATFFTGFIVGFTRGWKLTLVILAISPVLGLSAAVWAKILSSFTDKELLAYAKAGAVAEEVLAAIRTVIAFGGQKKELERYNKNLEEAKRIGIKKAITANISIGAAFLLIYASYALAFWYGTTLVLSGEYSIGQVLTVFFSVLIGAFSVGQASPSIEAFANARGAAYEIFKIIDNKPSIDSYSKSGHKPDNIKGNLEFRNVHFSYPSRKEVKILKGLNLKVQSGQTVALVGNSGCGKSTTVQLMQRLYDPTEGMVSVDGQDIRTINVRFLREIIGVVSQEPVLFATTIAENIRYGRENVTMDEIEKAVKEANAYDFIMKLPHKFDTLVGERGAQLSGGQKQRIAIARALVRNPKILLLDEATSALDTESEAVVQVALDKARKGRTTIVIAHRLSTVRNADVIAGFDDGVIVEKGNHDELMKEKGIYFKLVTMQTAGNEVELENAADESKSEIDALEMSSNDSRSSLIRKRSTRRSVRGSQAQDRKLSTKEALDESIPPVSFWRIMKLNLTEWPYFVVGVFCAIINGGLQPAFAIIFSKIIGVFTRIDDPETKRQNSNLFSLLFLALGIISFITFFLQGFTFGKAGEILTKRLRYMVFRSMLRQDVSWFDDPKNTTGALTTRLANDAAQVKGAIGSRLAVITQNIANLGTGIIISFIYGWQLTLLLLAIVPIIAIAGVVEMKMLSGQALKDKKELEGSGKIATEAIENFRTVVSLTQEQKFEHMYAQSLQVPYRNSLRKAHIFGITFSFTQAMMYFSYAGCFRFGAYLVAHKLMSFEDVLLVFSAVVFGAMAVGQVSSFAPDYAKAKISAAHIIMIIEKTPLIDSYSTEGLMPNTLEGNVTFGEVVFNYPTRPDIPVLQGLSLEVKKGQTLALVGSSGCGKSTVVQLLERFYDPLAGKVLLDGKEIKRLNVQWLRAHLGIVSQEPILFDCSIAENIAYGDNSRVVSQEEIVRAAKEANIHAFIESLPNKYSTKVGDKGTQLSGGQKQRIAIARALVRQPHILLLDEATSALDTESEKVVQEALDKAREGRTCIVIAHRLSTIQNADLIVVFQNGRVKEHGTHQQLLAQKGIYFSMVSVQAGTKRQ

O=c1c(O)c(-c2ccc(O)c(O)c2)oc2cc(O)cc(O)c12 [quercetin]
effect on arsenite-induced increase in MDR1 expression (MDR1 [1]): can prevent an increase in MDR1 expression
potentiation of anti-tumor effect of cisplatin (tumor; i.p. 20 mg/kg): potentiate the anti-tumor effect of cisplatin
inhibition of protein kinase C (PKC; literature): inhibition of PKC activity

Nc1ccn([C@@H]2O[C@H](CO)[C@@H](O)[C@@H]2O)c(=O)n1 [Ara-C, 1-β-D-arabinofuranosylcytosine]
subpopulation of live cells showing efflux of Rh123 (P-glycoprotein [2]; Ara-C 12-72 hours): 3-17%
maintenance of MDR1 expression after removal of the drug (MDR1 [3]; Ara-C treated K562 population): up to 11 weeks
MDR1 mRNA expression (MDR1 [3]; EJ bladder carcinoma, 10 μM, 4 days): activated MDR1 mRNA expression
MDR1 mRNA expression (MDR1 [3]; H9 T-cell leukemia): activated MDR1 mRNA expression
maintenance of MDR1 expression after removal of the drug (MDR1 [3]; [9]): least several weeks
MDR1 mRNA expression relative to β2 -glycoprotein (MDR1 [3]; K562 cells, Ara-C): dose-dependent increase in MDR1 mRNA expression
MDR1 mRNA expression (MDR1 [3]; [10]): activated MDR1 mRNA expression
P-glycoprotein expression (Rh123 accumulation or UIC2 immunoreactivity) (MDR1 [3]; KG1 leukemia cells, Ara-C (10 μM, 1.5 days)): increased P-glycoprotein expression
MDR1 induction, mRNA and protein levels (MDR1 [3]; [11]): MDR1 induction, both at the mRNA and at the protein levels, was observed
effect on MRP expression (MRP; 25 μM Ara-C, data not shown): slight decrease in MRP expression

NC(=O)NO [hydroxyurea]
treated cells showing efflux of Rh123 or DiOC2 (3) (P-glycoprotein [2]): 3-10%
MDR1 induction, mRNA and protein levels (MDR1 [3]): MDR1 induction, both at the mRNA and at the protein levels, was observed
MDR1 mRNA induction (MDR1 [3]): induce MDR1 mRNA expression

CC[C@]1(O)C[C@@H]2CN(CCc3c([nH]c4ccccc34)[C@@](C(=O)OC)(c3cc4c(cc3OC)N(C)[C@H]3[C@@](O)(C(=O)OC)[C@H](OC(C)=O)[C@]5(CC)C=CCN6CC[C@]43[C@@H]65)C2)C1 [vinblastine]
MDR1 induction, mRNA and protein levels (MDR1 [3]): MDR1 induction, both at the mRNA and at the protein levels, was observed
MDR1 mRNA expression (MDR1 [3]): MDR1 mRNA expression was induced
MDR1 mRNA induction (MDR1 [3]): induce MDR1 mRNA expression
treated cells showing efflux of Rh123 or DiOC2 (3) (P-glycoprotein [4]): 3-10%

COc1cccc2c1C(=O)c1c(O)c3c(c(O)c1C2=O)C[C@@](O)(C(C)=O)C[C@@H]3O[C@H]1C[C@H](N)[C@H](O)[C@H](C)O1 [daunorubicin]
MDR1 induction, mRNA and protein levels (MDR1 [3]): MDR1 induction, both at the mRNA and at the protein levels, was observed
MDR1 mRNA induction (MDR1 [3]): induce MDR1 mRNA expression
treated cells showing efflux of Rh123 or DiOC2 (3) (P-glycoprotein [4]): 3-10%

CCCCCCCCCCCCCCCCSCC(COC)COP(=O)([O-])OCC[N+](C)(C)C (stereo not drawn) [ilmofosine]
MTD, oral [5]: 200 mg/day

O=[As][O-].[Na+] [arsenite]
MDR1 expression (MDR1 [1]): increased

COC(=O)C=Cc1cc(O)ccc1O [methyl-2,5-dihydroxycinnamate]
inhibition of TPA-induced MDR1 expression (MDR1 [6]; 32 μM): completely inhibited TPA-induced MDR1 expression
inhibition of Ara-C induced MDR1 expression (MDR1 [7]; H9 cells, 25 μM Ara-C 10 h, 32 μM): ++++
inhibition of Ara-C induced MDR1 expression (MDR1 [7]; H-9 cells, 32 μM): completely inhibit Ara-C induced MDR1 expression
inhibition of Ara-C induced MDR1 expression (MDR1 [7]; H-9 cells, 32 μM and 64 μM): inhibits MDR1 expression at both 32 μM and 64 μM to essentially the same degree
Inhibition of MRP Expression (MRP; 32 μM): ++++
inhibition of MRP expression (MRP; 32 μM): strongly inhibited; also recorded: capable of inhibiting MRP expression

COc1cccc2c1C(=O)c1c(O)c3c(c(O)c1C2=O)C[C@@](O)(C(=O)CO)C[C@@H]3O[C@H]1C[C@H](N)[C@H](O)[C@H](C)O1 [Adriamycin]
treated cells showing efflux of Rh123 or DiOC2 (3) (P-glycoprotein [2]): 3-10%
MDR1 mRNA expression (MDR1 [3]; H9 T-cell leukemia): MDR1 mRNA expression was induced
MDR1 mRNA induction (MDR1 [3]; K562 cells): induce MDR1 mRNA expression
maintenance of MDR1 expression after removal of the drug (MDR1 [3]; [9]): least several weeks
MDR1 mRNA expression (MDR1 [3]; [10]): MDR1 mRNA expression was induced
MDR1 induction, mRNA and protein levels (MDR1 [3]; [11]): MDR1 induction, both at the mRNA and at the protein levels, was observed

CC1CNCCN1S(=O)(=O)c1cccc2cnccc12 (stereo not drawn) [H7]
IC50 (protein kinase A): 3 µM
IC50 (PKC): 6 µM
prevention of MDR1 induction by chemotherapeutic drugs (MDR1 [7]; 50 μM): prevent MDR1 induction

N=C(N)NCCNS(=O)(=O)c1cccc2cnccc12 [HA1004]
IC50 (protein kinase A): 2.3 µM
IC50 (PKC): 40 µM
inhibition of MDR1 induction by Ara-C (MDR1 [7]; H9 cells, 60 μM HA1004, 50 μM Ara-C 22 hr): no significant inhibition
prevention of MDR1 induction (MDR1 [7]; protein kinase inhibitor inactive against PKC): totally ineffective in preventing MDR1 induction

CCCCCCCCCCCCCCCCSCC(COC)COP(=O)([O-])OCC[N+](C)(C)C (stereo not drawn) [BM41440]
MTD, oral [5]: 5 mg/kg body weight

CN[C@@H]1C[C@H]2O[C@@](C)([C@@H]1OC)n1c3ccccc3c3c4c(c5c6ccccc6n2c5c31)C(=O)NC4 [staurosporine]
inhibition of DOG-induced MDR1 induction (MDR1 [6]; H9 cells, staurosporine 30 nM, 30 minutes prior to DOG): completely abolished MDR1 induction
inhibition of TPA-induced MDR1 induction (MDR1 [6]; H9 cells, staurosporine 30 nM, 30 minutes prior to TPA): completely abolished MDR1 induction
inhibition of TPA-induced MDR1 expression (MDR1 [6]; 30 nM): completely inhibited TPA-induced MDR1 expression
anti-tumor effect at fraction of MTD (tumor; Meyer et al., 1989): 1/10
maximum tolerated dose (MTD) (tumor; Meyer et al., 1989): 1 mg/kg
P-glycoprotein expression, inhibitor alone (P-glycoprotein [8]; KG1a cells, staurosporine 100 nM): significant increase in P-glycoprotein expression
P-glycoprotein expression, inhibitor alone (P-glycoprotein [8]; KG1 cells): significant increase in P-glycoprotein expression
MDR1 expression, inhibitor alone (P-glycoprotein [8]; P-glycoprotein-negative H9 cells, 30 nM): did not induce MDR1 expression
prevention of MDR1 induction by TPA, diacylglycerol, Ara-C, vinblastine, methotrexate and Adriamycin (MDR1 [7]; P-glycoprotein-negative cells, 30 nM): prevent MDR1 induction

— patent US5972598A, “Methods for preventing multidrug resistance in cancer cells” (priority 1995, dated 1999)
